Results from patent US10105357B2, “Indication of antibiotic drugs for preparation of cancer inhibition pharmaceutical composition” (LAUNX BIOMEDICAL CO., LTD., priority 2014, dated 2018).
Where two headings read alike, the source gives them in different places.

Key:
[1] = tested on: LoVo (Colorectal Adenocarcinoma); test: Cell viability analysis, colon cancer LoVo; assay type: cell-based, human
[2] = tested on: AGS (Gastric Adenocarcinoma); test: Cell viability analysis, gastric cancer AGS; assay type: cell-based, human
[3] = tested on: A549 (Lung Adenocarcinoma); test: Cell viability analysis, lung cancer A549; assay type: cell-based, human
[4] = tested on: TSGH-8301 (Urinary Bladder Carcinoma); test: Cell viability analysis, bladder cancer TSGH-8301; assay type: cell-based, human
[5] = tested on: HCT116 (p53+) (Colorectal Carcinoma); test: cells; conditions: Homo sapiens, HCT-116, 72 h, read-out: cell viability (survival rate), HCT116
[6] = tested on: HepG2 (Hepatocellular Carcinoma); test: Cell viability analysis, hepatic cancer HepG2; assay type: cell-based, human
[7] = tested on: MCF7 (Mammary Gland, Adenocarcinoma); test: Cell viability analysis, breast cancer MCF7; assay type: cell-based, human
[8] = tested on: PC3 (p53−) (Prostate Adenocarcinoma); test: Cell viability analysis, prostate cancer PC3; assay type: cell-based, human
[9] = tested on: HeLa (Cervix Adenocarcinoma); test: Cell viability analysis, cervical cancer HeLa; assay type: cell-based, human
[10] = tested on: HL-60 (Acute Promyelocytic Leukemia); test: Cell viability analysis, leukemia HL-60; assay type: cell-based, human
[11] = tested on: HI650 (Lung Adenocarcinoma); test: Cell viability analysis, lung cancer HI650; assay type: cell-based, human
[12] = tested on: A375 (Amelanotic Melanoma); test: Cell viability analysis, skin cancer A375; assay type: cell-based, human
[13] = tested on: MKN-45 (Gastric Adenocarcinoma); test: Cell viability analysis, gastric cancer MKN-45; assay type: cell-based, human; conditions: Homo sapiens, read-out: cell viability (survival rate), MKN-45
[14] = Homo sapiens, LoVo; drug 10 μM, 72 hours, WST-1, OD450 nm; read-out: cell viability (survival rate), LoVo
[15] = Homo sapiens; drug 10 μM, 72 hours, WST-1, OD450 nm; read-out: cell viability (survival rate), AGS
[16] = Homo sapiens, A549; drug 10 μM, 72 hours, WST-1, OD450 nm; read-out: cell viability (survival rate), A549
[17] = Homo sapiens; drug 10 μM, 72 hours, WST-1, OD450 nm; read-out: cell viability (survival rate), TSGH
[18] = Homo sapiens, MCF7; drug 10 μM, 72 hours, WST-1, OD450 nm; read-out: cell viability (survival rate), MCF7
[19] = Homo sapiens; drug 10 μM, 72 hours, WST-1, OD450 nm; read-out: cell viability (survival rate), PC3
[20] = MKN-45, drug 10 μM, 72 hours, WST-1, OD450 nm
[21] = Homo sapiens, HeLa; drug 10 μM, 72 hours, WST-1, OD450 nm; read-out: cell viability (survival rate), HeLa
[22] = Homo sapiens, HL-60; drug 10 μM, 72 hours, WST-1, OD450 nm; read-out: cell viability (survival rate), HL-60
[23] = Homo sapiens, NCI-H1650; drug 10 μM, 72 hours, WST-1, OD450 nm; read-out: cell viability (survival rate), H1650
[24] = Homo sapiens, A-375; drug 10 μM, 72 hours, WST-1, OD450 nm; read-out: cell viability (survival rate), A375

## Cc1cc(O)ccc1Cl [Chlorocresol]
[1]; Homo sapiens, LoVo, 72 h; read-out: cell viability (survival rate), LoVo
  viability at 10 µM: 62%
[2]; Homo sapiens, 72 h; read-out: cell viability (survival rate), AGS
  viability at 10 µM: 103%
[3]; Homo sapiens, A549, 72 h; read-out: cell viability (survival rate), A549
  viability at 10 µM: 80.1%
[4]; Homo sapiens, 72 h; read-out: cell viability (survival rate), TSGH
  viability at 10 µM: 113%
[5]
  viability at 10 µM: 61.7%
[6]; Homo sapiens, HepG2, 72 h; read-out: cell viability (survival rate), HepG2
  viability at 10 µM: 98.6%
[7]; Homo sapiens, MCF7, 72 h; read-out: cell viability (survival rate), MCF7
  viability at 10 µM: 64.2%
[8]; Homo sapiens, 72 h; read-out: cell viability (survival rate), PC3
  viability at 10 µM: 130%
[9]; Homo sapiens, HeLa, 72 h; read-out: cell viability (survival rate), HeLa
  viability at 10 µM: 96.3%
[10]; Homo sapiens, HL-60, 72 h; read-out: cell viability (survival rate), HL-60
  viability at 10 µM: 96.4%
[11]; Homo sapiens, NCI-H1650, 72 h; read-out: cell viability (survival rate), H1650
  viability at 10 µM: 91.5%
[12]; Homo sapiens, A-375, 72 h; read-out: cell viability (survival rate), A375
  viability at 10 µM: 65.4%

## C[N+](C)(C)CCO.[Cl-] [Choline Chloride]
[1]; Homo sapiens, LoVo, 72 h, read-out: cell viability (survival rate), LoVo
  viability at 10 µM: 76.7%
[2]; Homo sapiens, 72 h, read-out: cell viability (survival rate), AGS
  viability at 10 µM: 97.1%
[3]; Homo sapiens, A549, 72 h, read-out: cell viability (survival rate), A549
  viability at 10 µM: 96%
[4]; Homo sapiens, 72 h, read-out: cell viability (survival rate), TSGH
  viability at 10 µM: 129%
[5]
  viability at 10 µM: 104%
[6]; Homo sapiens, HepG2, 72 h, read-out: cell viability (survival rate), HepG2
  viability at 10 µM: 103%
[7]; Homo sapiens, MCF7, 72 h, read-out: cell viability (survival rate), MCF7
  viability at 10 µM: 108%
[8]; Homo sapiens, 72 h, read-out: cell viability (survival rate), PC3
  viability at 10 µM: 106%
[13]; MKN-45, 72 h
  viability at 10 µM: 99.3%
[9]; Homo sapiens, HeLa, 72 h, read-out: cell viability (survival rate), HeLa
  viability at 10 µM: 103%
[10]; Homo sapiens, HL-60, 72 h, read-out: cell viability (survival rate), HL-60
  viability at 10 µM: 91.1%
[11]; Homo sapiens, NCI-H1650, 72 h, read-out: cell viability (survival rate), H1650
  viability at 10 µM: 90.2%
[12]; Homo sapiens, A-375, 72 h, read-out: cell viability (survival rate), A375
  viability at 10 µM: 132%

## CCC1(C)CC(=O)NC(=O)C1 [Bemegride]
[1]; [14]
  viability at 10 µM: 88.5%
[2]; [15]
  viability at 10 µM: 62%
[3]; [16]
  viability at 10 µM: 60.2%
[4]; [17]
  viability at 10 µM: 93.3%
[5]
  viability at 10 µM: 47.7%
[6]; Homo sapiens, HepG2; drug 10 μM, 72 hours, WST-1, OD450 nm; read-out: cell viability (survival rate), HepG2
  viability at 10 µM: 90.7%
[7]; [18]
  viability at 10 µM: 123%
[8]; [19]
  viability at 10 µM: 113%
[13]; [20]
  viability at 10 µM: 99.7%
[9]; [21]
  viability at 10 µM: 62.7%
[10]; [22]
  viability at 10 µM: 125%
[11]; [23]
  viability at 10 µM: 69.9%
[12]; [24]
  viability at 10 µM: 62.7%

## c1ccc2c(c1)sc1ccccc12 [Dibenzothiophene]
[1]; [14]
  viability at 10 µM: 79.7%
[2]; [15]
  viability at 10 µM: 59.2%
[3]; [16]
  viability at 10 µM: 62.3%
[4]; [17]
  viability at 10 µM: 88.2%
[5]
  viability at 10 µM: 52.7%
[7]; [18]
  viability at 10 µM: 71.4%
[8]; [19]
  viability at 10 µM: 80.2%
[13]; [20]
  viability at 10 µM: 92.1%
[9]; [21]
  viability at 10 µM: 94.6%
[10]; [22]
  viability at 10 µM: 110%
[11]; [23]
  viability at 10 µM: 76.1%
[12]; [24]
  viability at 10 µM: 70.6%

## O=c1ccc2ccccc2o1 [Coumarin]
[1]; Homo sapiens, LoVo, 72 h, read-out: cell viability (survival rate), LoVo, drug 10 μM, 72 hours, WST-1, OD450 nm
  viability at 10 µM: 88.3%
[2]; Homo sapiens, 72 h, read-out: cell viability (survival rate), AGS, drug 10 μM, 72 hours, WST-1, OD450 nm
  viability at 10 µM: 98.5%
[3]; Homo sapiens, A549, 72 h, read-out: cell viability (survival rate), A549, drug 10 μM, 72 hours, WST-1, OD450 nm
  viability at 10 µM: 91.8%
[4]; Homo sapiens, 72 h, read-out: cell viability (survival rate), TSGH, drug 10 μM, 72 hours, WST-1, OD450 nm
  viability at 10 µM: 108%
[5]
  viability at 10 µM: 93.7%
[6]; Homo sapiens, HepG2, 72 h, read-out: cell viability (survival rate), HepG2, drug 10 μM, 72 hours, WST-1, OD450 nm
  viability at 10 µM: 100%
[8]; Homo sapiens, 72 h, read-out: cell viability (survival rate), PC3, drug 10 μM, 72 hours, WST-1, OD450 nm
  viability at 10 µM: 86.3%
[9]; Homo sapiens, HeLa, 72 h, read-out: cell viability (survival rate), HeLa, drug 10 μM, 72 hours, WST-1, OD450 nm
  viability at 10 µM: 96.5%
[10]; Homo sapiens, HL-60, 72 h, read-out: cell viability (survival rate), HL-60, drug 10 μM, 72 hours, WST-1, OD450 nm
  viability at 10 µM: 102%
[11]; Homo sapiens, NCI-H1650, 72 h, read-out: cell viability (survival rate), H1650, drug 10 μM, 72 hours, WST-1, OD450 nm
  viability at 10 µM: 95.6%
[12]; Homo sapiens, A-375, 72 h, read-out: cell viability (survival rate), A375, drug 10 μM, 72 hours, WST-1, OD450 nm
  viability at 10 µM: 157%
